# In patent publication US20260297022A1, “PROCESS FOR THE PREPARATION OF SULFAMOYLBENZOIC ACID DERIVATIVES” (IAMA THERAPEUTICS S.R.L., priority 2023, published 2026):
# Test: Aqueous kinetic solubility from a solution of 10 mM DMSO in phosphate buffered saline (PBS) at pH 7.4
# Format: physicochemical
# Conditions: PBS pH 7.4, 25° C., target concentration 250 μM, 2.5% DMSO, UV quantification at 215 nm, read-out: Kinetic sol. PBS pH 7.4
# Protocol: Aqueous kinetic solubility of derivative compounds of the benzoic acid starting from a solution of 10 mM DMSO in phosphate buffered saline (PBS) at pH 7.4
# Aliquots of 30 μL of stock solution of the test compound in 10 mM DMSO were incubated in phosphate buffered saline (PBS) at pH 7.4 at 25° C. for 24 hours. After centrifugation, the compound dissolved in the supernatant was quantified by […].
# The target concentration was 250 μM with a final concentration of 2.5% DMSO. Aqueous kinetic solubility was determined by UV quantification at 215 nm. The kinetic solubility was then calculated by dividing the peak area of the supernatant by the peak area of the reference and multiplying by the reference concentration (μM) and the dilution factor (1.25).
row,solubility kinetic at 24 h,SMILES
1,247 µM,CCCCCCNc1ccc(C(=O)O)cc1S(=O)(=O)NC [Compound 4]
2,223 µM,O=C(O)c1ccc(NCCCCCCCC(F)(F)F)c(S(=O)(=O)NC2CCCC2)c1 [Compound 12]
3,237 µM,COCCNc1ccc(C(=O)O)cc1S(=O)(=O)N(C)C [Compound 9]
4,247 µM,COCCCCNc1ccc(C(=O)O)cc1S(=O)(=O)N(C)C [Compound 10]
5,243 µM,CCCCCCNc1ccc(C(=O)O)cc1S(=O)(=O)N(C)C [Compound 5]
6,242 µM,CNS(=O)(=O)c1cc(C(=O)O)ccc1NCCCCCCCC(F)(F)F [Compound 18]
7,>250 µM,COCCCCCCNc1ccc(C(=O)O)cc1S(=O)(=O)N(C)C [Compound 11]
8,>250 µM,CCCCCCCCNc1ccc(C(=O)O)cc1S(N)(=O)=O [Compound 3]
9,245 µM,CN(C)S(=O)(=O)c1cc(C(=O)O)ccc1NCCCC(F)(F)F [Compound 7]
10,244 µM,O=C(O)c1ccc(NCCCCCCCC(F)(F)F)c(S(=O)(=O)NC2CCOCC2)c1 [Compound 14]
11,238 µM,CCCCCCNc1ccc(C(=O)O)cc1S(N)(=O)=O [Compound 2]
12,241 µM,CN(C)S(=O)(=O)c1cc(C(=O)O)c(Cl)cc1NCCCCCCCC(F)(F)F [Compound 16]
13,249 µM,CN(C)S(=O)(=O)c1cc(C(=O)O)ccc1NCCCCCC(F)(F)F [Compound 8]
14,>250 µM,CN(C)S(=O)(=O)c1cc(C(=O)O)ccc1NCCC(C)(C)C [Compound 6]
15,244 µM,O=C(O)c1ccc(NCCCCCCCC(F)(F)F)c(S(=O)(=O)N2CCOCC2)c1 [Compound 13]
16,188 µM,COc1cc(NCCCCCCCC(F)(F)F)c(S(=O)(=O)N(C)C)cc1C(=O)O [Compound 20]
17,>250 µM,"CN(C)S(=O)(=O)c1cc(C(=O)O)ccc1NCCCCCCCC(F)(F)F [Compound 1, 3-(dimethylsulfamoyl)-4-(8,8,8-trifluorooctylamino)benzoic acid]"

# Same assay, conditions: aqueous buffer, PBS pH 7.4, 25° C., target concentration 250 μM, 2.5% DMSO, UV quantification at 215 nm, read-out: Kinetic sol. PBS pH 7.4
row,solubility kinetic at 24 h,SMILES
1,> 250 µM,C=CCCCCCNc1ccc(C(=O)O)cc1S(=O)(=O)N(C)C [Compound 17]
2,> 250 µM,NS(=O)(=O)c1cc(C(=O)O)c(O)cc1NCCCCCCCC(F)(F)F [Compound 19]
3,> 250 µM,CN(C)S(=O)(=O)c1cc(C(=O)O)ccc1N1CCN(CCCCC(F)(F)F)CC1 [Compound 15]
